Results: PubChem BioAssay (NCI)
“And” between values parts separate entries of the source, which are not always exact repeats. Equal entries are not always repeated.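 The compound was tested at five concentrations on cells cultured in 96-well plates, with a 48-hour exposure period. Abbreviation: GI50, concentration required for 50% inhibition of growth. TGI: total growth inhibition.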

What was measured:
Experiment in all cases: growth of human tumour cells (NCI), 48 h
[1] = system: 786-0 renal
[2] = system: A498 renal
[3] = system: A549 NSCLC
[4] = system: ACHN renal
[5] = system: BT-549 breast
[6] = system: CAKI-1 renal
[7] = system: CCRF-CEM leukemia
[8] = system: COLO 205 colon
[9] = system: DU-145 prostate
[10] = system: EKVX NSCLC
[11] = system: HCC-2998 colon
[12] = system: HCT-116 colon
[13] = system: HCT-15 colon
[14] = system: HL-60(TB) leukemia
[15] = system: HOP-62 NSCLC
[16] = system: HOP-92 NSCLC
[17] = system: HS 578T breast
[18] = system: HT29 colon
[19] = system: IGROV1 ovarian
[20] = system: K-562 leukemia
[21] = system: KM12 colon
[22] = system: LOX IMVI melanoma
[23] = system: M14 melanoma
[24] = system: MALME-3M melanoma
[25] = system: MCF7 breast
[26] = system: MDA-MB-231 breast
[27] = system: MDA-MB-435
[28] = system: MDA-N
[29] = system: MOLT-4 leukemia
[30] = system: NCI-H226 lung
[31] = system: NCI-H23 lung
[32] = system: NCI-H460 lung
[33] = system: NCI-H522 lung
[34] = system: NCI/ADR-RES ovarian
[35] = system: OVCAR-3 ovarian
[36] = system: OVCAR-4 ovarian
[37] = system: OVCAR-5 ovarian
[38] = system: OVCAR-8 ovarian
[39] = system: PC-3 prostate
[40] = system: RXF 393 renal
[41] = system: SF-268 CNS
[42] = system: SF-295 CNS
[43] = system: SF-539 CNS
[44] = system: SK-MEL-2 melanoma
[45] = system: SK-MEL-28 melanoma
[46] = system: SK-MEL-5 melanoma
[47] = system: SK-OV-3 ovarian
[48] = system: SN12C renal
[49] = system: SNB-19 CNS
[50] = system: SNB-75 CNS
[51] = system: SR leukemia
[52] = system: SW-620 colon
[53] = system: T-47D breast
[54] = system: TK-10 renal
[55] = system: U251 CNS
[56] = system: UACC-257 melanoma
[57] = system: UACC-62 melanoma
[58] = system: UO-31 renal
[59] = system: RPMI-8226 leukemia

C/C=C1/CN2CCC34c5ccccc5N5C(=O)C(C6CC78c9ccccc9N9C(=O)C=CC(C%10CC7N6C/C%10=C/C)C98)=CC(C1CC23)C54 (stereo not given)
GI50 [1]: 5.51 µM | TGI [1]: 11.3 µM and 20.1 µM | GI50 [2]: 10.7 µM | TGI [2]: 16.6 µM and 23.7 µM | GI50 [3]: 14.1 µM | TGI [3]: 18.9 µM and 32.3 µM | GI50 [4]: 11.7 µM | TGI [4]: 13.6 µM and 24.3 µM | TGI [5]: 16.4 µM and 21.9 µM | TGI [6]: 21.2 µM and 26.8 µM | GI50 [7]: 1.6 µM | TGI [7]: 2.05 µM and 4.39 µM | GI50 [8]: 8.74 µM | TGI [8]: 12.4 µM and 26.6 µM | TGI [9]: 23.4 µM | GI50 [10]: 12.5 µM | TGI [10]: 14.5 µM and 26.4 µM | GI50 [11]: 13.4 µM | TGI [11]: 12.2 µM and 29.9 µM | GI50 [12]: 2.3 µM | TGI [12]: 12.1 µM and 5.45 µM | GI50 [13]: 2.83 µM | TGI [13]: 14.6 µM and 10.3 µM | GI50 [14]: 2.7 µM | TGI [14]: 1.36 µM and 10.2 µM | TGI [15]: 20.5 µM and 23.3 µM | GI50 [16]: 0.466 µM | TGI [16]: 13.6 µM and 6.71 µM | GI50 [17]: 16.6 µM | TGI [17]: 20.9 µM and 73.2 µM | TGI [18]: 9.87 µM and 5.4 µM | TGI [19]: 18.3 µM | TGI [20]: 50 µM | GI50 [21]: 2.94 µM | TGI [21]: 36.8 µM and 12.2 µM | TGI [22]: 26 µM | GI50 [23]: 3.81 µM | TGI [23]: 11.9 µM and 13.8 µM | TGI [24]: 14.5 µM | GI50 [25]: 2.9 µM | TGI [25]: 8.15 µM and 12 µM | GI50 [26]: 13.4 µM | TGI [26]: 8.36 µM and 29 µM | GI50 [27]: 7.47 µM | TGI [27]: 21.4 µM and 21.7 µM | GI50 [28]: 3.51 µM | TGI [28]: 12.7 µM and 13.3 µM | TGI [29]: 5.56 µM | GI50 [30]: 24 µM | TGI [30]: 15 µM and 46 µM | GI50 [31]: 3.94 µM | TGI [31]: 13.1 µM and 15.5 µM | GI50 [32]: 9.87 µM | TGI [32]: 15.9 µM and 40 µM | GI50 [33]: 8.97 µM | TGI [33]: 11 µM and 27.2 µM | GI50 [34]: 2.57 µM | TGI [34]: 50 µM and 10.4 µM | GI50 [35]: 10.7 µM | TGI [35]: 16.5 µM and 23.5 µM | TGI [36]: 32.9 µM and 22.4 µM | GI50 [37]: 19.3 µM | TGI [37]: 19.9 µM and 34.6 µM | GI50 [38]: 2.78 µM | TGI [38]: 8.57 µM and 10.8 µM | GI50 [39]: 2.45 µM | TGI [39]: 9.38 µM | TGI [40]: 8.57 µM | GI50 [41]: 4.3 µM | TGI [41]: 17.7 µM and 17.2 µM | GI50 [42]: 15.9 µM | TGI [42]: 19.6 µM and 32.7 µM | GI50 [43]: 12 µM | TGI [43]: 3.32 µM and 26.4 µM | GI50 [44]: 12.3 µM | TGI [44]: 13.5 µM and 25.5 µM | GI50 [45]: 10.1 µM | TGI [45]: 11.3 µM and 22.7 µM | GI50 [46]: 11.9 µM | TGI [46]: 12 µM and 25.1 µM | GI50 [47]: 15.3 µM | TGI [47]: 19.1 µM and 29.7 µM | GI50 [48]: 11.9 µM | TGI [48]: 14.5 µM and 26.8 µM | GI50 [49]: 14.8 µM | TGI [49]: 15.2 µM and 30 µM | TGI [50]: 14.7 µM | TGI [51]: 50 µM | GI50 [52]: 3.32 µM | TGI [52]: 5.45 µM and 11.8 µM | TGI [53]: 33.6 µM | GI50 [54]: 22 µM | TGI [54]: 14.4 µM and 40.7 µM | GI50 [55]: 4.66 µM | TGI [55]: 12.1 µM and 17.3 µM | GI50 [56]: 2.93 µM | TGI [56]: 12.2 µM and 9.24 µM | GI50 [57]: 10.9 µM | TGI [57]: 14.4 µM and 23.6 µM | GI50 [58]: 5.87 µM | TGI [58]: 9.81 µM and 20.2 µM

c1ccc(C(OCCN2CC3CCC(C2)N3)c2ccccc2)cc1
TGI [1]: > 100 µM | TGI [2]: > 100 µM | TGI [3]: > 100 µM | TGI [4]: > 100 µM | TGI [5]: > 100 µM | TGI [6]: > 100 µM | TGI [7]: > 100 µM | TGI [8]: 42.2 µM | TGI [9]: > 100 µM | TGI [10]: > 100 µM | TGI [11]: 32.3 µM | TGI [12]: > 100 µM | TGI [13]: > 100 µM | TGI [14]: > 100 µM | TGI [15]: > 100 µM | TGI [16]: 75.6 µM | TGI [17]: > 100 µM | TGI [18]: > 100 µM | TGI [19]: > 100 µM | TGI [20]: > 100 µM | TGI [21]: > 100 µM | TGI [22]: > 100 µM | TGI [23]: 32.3 µM | TGI [24]: 30.5 µM | TGI [25]: > 100 µM | TGI [26]: > 100 µM | TGI [27]: > 100 µM | TGI [28]: 79.6 µM | TGI [29]: > 100 µM | TGI [30]: > 100 µM | TGI [31]: > 100 µM | TGI [32]: > 100 µM | TGI [33]: 93.1 µM | TGI [34]: > 100 µM | TGI [35]: > 100 µM | TGI [36]: > 100 µM | TGI [37]: > 100 µM | TGI [38]: > 100 µM | TGI [39]: > 100 µM | TGI [59]: > 100 µM | TGI [40]: > 100 µM | TGI [41]: > 100 µM | TGI [42]: > 100 µM | TGI [43]: > 100 µM | TGI [44]: > 100 µM | TGI [45]: > 100 µM | TGI [46]: 36.1 µM | TGI [47]: > 100 µM | TGI [48]: > 100 µM | TGI [49]: > 100 µM | TGI [50]: > 100 µM | TGI [51]: > 100 µM | TGI [52]: > 100 µM | TGI [53]: > 100 µM | TGI [54]: > 100 µM | TGI [55]: > 100 µM | TGI [56]: 49 µM | TGI [57]: 64.3 µM | TGI [58]: > 100 µM
